# Data: US8835644B2, “Broad spectrum benzothiophene-nitrothiazolide and other antimicrobials” (University of Virginia Patent Foundation, priority 2009, dated 2014)
# Like-named read-outs stand apart in the source and are kept apart here.
# How the values were obtained:
# H. pylori = assay: MIC testing by broth dilution, H. pylori; type: cell-based, Helicobacter pylori
# Procedure: (§1) A standard broth dilution protocol was used in 96 well microplates containing a standard dilution of the microorganism to be tested in 100 microliters of the appropriate medium. Appropriate medium: E. coli, LB medium; Staphylococcus strains, Trypticase Soy; and for H. pylori and C. jejuni, Brain Heart Infusion. The compounds to be tested were set at 32 μg/ml in 200 microliters in well one and then serially diluted to provide a range from 32 to 0.06. The wells were scored visually at 24 h. The well where there was no growth was recorded as the MIC. Clostridium difficile was tested by agar diffusion and disk diffusion (Kirby Bower) methods under anaerobic conditions on Wilkins Chalgrin agar. In these assays, zone of inhibited growth was measured and compared by relative ratio to the zone recorded for NTZ.
# (§2) Representative compounds of the invention were tested in a series of assays against a series of organisms as described above. […] The organisms tested include, C. difficile, H. pylori, C. jejuni, MRSA, S. epidermidis, and E. coli. S. epidermidis and E. coli were tested in the plank and biofilm assay. A disk diffusion assay was also used for C. difficile. Direct PFOR enzyme assays were also performed. All analogues and derivatives were not tested on every organism in every type of assay (the “-” in each table means that it was not tested).
# C. jejuni = assay: MIC testing by broth dilution, C. jejuni; type: cell-based, Campylobacter jejuni
# Procedure: as §1, §2
# MRSA = assay: MIC testing by broth dilution, MRSA; type: cell-based, Staphylococcus aureus
# Procedure: as §1, §2
# S. epidermidis = assay: MIC testing by broth dilution, S. epidermidis plank; type: cell-based, Staphylococcus epidermidis
# Procedure: as §1, §2
# E. coli = assay: MIC testing by broth dilution, E. coli plank; type: cell-based, Escherichia coli
# Procedure: as §1, §2
# C. difficile = assay: Disk diffusion (Kirby Bower), C. difficile; type: cell-based, Clostridium difficile; conditions: for Disk Diff (%) C. difficile: Nitazoxanide = 100; for Disk Diffusion (%) C. difficile: zone of inhibited growth as relative ratio to the zone for NTZ
# Procedure: as §1, §2
# E. coli biofilm = E. coli biofilm assay (activity tables); type: cell-based, Escherichia coli; conditions: biofilm; read-out: MIC (μM) E. coli Biofilm
# Procedure: A quantitative biofilm assay was used to determine the effect of NTZ on biofilm formation (41). Strain 042 was grown overnight at 37° C. with shaking and inoculated 1:100 in 200 μl culture medium in Costar 96-well, flat-bottom, polystyrene microtiter plates containing appropriate concentrations of NTZ. Plates were incubated statically at 37° C. in a humidified incubator. At 24 h, bacterial growth was measured by either transferring […] aliquots to another microtiter plate to determine turbidity or by diluting 100 μl aliquots 1:100 in 9.9 ml PBS for quantitative plate counts on LB medium. Bacterial counts in triplicate are reported as cfu/ml. Biofilm was visualized following staining with 0.5% crystal violet (41) and the absorbance was read at 570 nm using a microplate reader (Molecular Dynamics). All experiments were in triplicate and reported as mean and standard deviation.
# as §1, §2
# [1] = broth dilution, Brain Heart Infusion, 24 h, read-out: MIC (μM) H. pylori
# [2] = broth dilution, Brain Heart Infusion, 24 h, read-out: MIC (μM) C. jejuni
# [3] = broth dilution, Trypticase Soy, 24 h, read-out: MIC (μM) MRSA
# [4] = broth dilution, Trypticase Soy, 24 h, read-out: MIC (μM) S. epidermidis Plank
# [5] = broth dilution, LB medium, 24 h, read-out: MIC (μM) E. coli Plank
# [6] = Helicobacter pylori, 24 h, read-out: MIC (μM) H. pylori
# [7] = Campylobacter jejuni, 24 h, read-out: MIC (μM) C. jejuni
# [8] = Staphylococcus aureus, MRSA, 24 h, read-out: MIC (μM) MRSA
# [9] = Staphylococcus epidermidis, 24 h, read-out: MIC (μM) S. epidermidis Plank
# [10] = Escherichia coli, 24 h, read-out: MIC (μM) E. coli Plank
# [11] = Helicobacter pylori, broth dilution, Brain Heart Infusion, 24 h, read-out: MIC (μM) H. pylori
# [12] = Campylobacter jejuni, broth dilution, Brain Heart Infusion, 24 h, read-out: MIC (μM) C. jejuni
# [13] = Staphylococcus aureus, MRSA, broth dilution, Trypticase Soy, 24 h, read-out: MIC (μM) MRSA
# [14] = Staphylococcus epidermidis, broth dilution, Trypticase Soy, 24 h, read-out: MIC (μM) S. epidermidis Plank
# [15] = Escherichia coli, broth dilution, LB medium, 24 h, read-out: MIC (μM) E. coli Plank
SMILES,MIC (H. pylori; [1]) [µM],MIC (C. jejuni; [2]) [µM],MIC (MRSA; [3]) [µM],MIC (S. epidermidis; [4]) [µM],MIC (E. coli; [5]) [µM],Disk Diffusion (%) C. difficile (C. difficile) [%],also measured
O=C(Nc1ncc([N+](=O)[O-])s1)c1cc2cc([N+](=O)[O-])ccc2o1 [VPC16a1019],,,,,,,"MIC (H. pylori; Furan analogues table, read-out: MIC H. pylori): 4.5 µM; MIC (C. jejuni; Furan analogues table, read-out: MIC C. jejuni): 4.5 µM; MIC (MRSA; Furan analogues table, read-out: MIC MRSA): 47.9 µM; MIC (S. epidermidis; planktonic, Furan analogues table, read-out: MIC S. epidermidis Plank): 23.9 µM; MIC (E. coli; planktonic, Furan analogues table, read-out: MIC E. coli Plank): 95.7 µM; Disk Diff (%) C. difficile (C. difficile; Furan analogues table): 77%"
O=C(Nc1ncc([N+](=O)[O-])s1)c1cccc(OC(F)(F)F)c1 [VPC16a1041],1.1,9.0,6.0,12.0,96.0,90,
O=C(Nc1ncc([N+](=O)[O-])s1)c1ccc(C(F)(F)F)cc1[N+](=O)[O-] [VPC16b1016],8.3,88.3,88.3,88.3,88.3,,MIC (E. coli biofilm): 88.3 µM
O=C(Nc1ncc([N+](=O)[O-])s1)c1ccc(F)c([N+](=O)[O-])c1 [VPC16b1017],1.6,51.2,76.9,51.2,102.5,,MIC (E. coli biofilm): 102.5 µM
"O=C(Nc1ncc([N+](=O)[O-])s1)c1cc2ccccc2[nH]1 [VPC16b1031, N-(5-Nitrothiazol-2-yl)-1H-indole-2-carboxamide]",,,,,,75,MIC (H. pylori; [6]): 6.9 µM; MIC (C. jejuni; [7]): 13.9 µM; MIC (MRSA; [8]): 27.8 µM; MIC (S. epidermidis; [9]): 13.9 µM; MIC (E. coli; [10]): 111 µM
NCCOc1ccccc1C(=O)Nc1ncc([N+](=O)[O-])s1.O=C(O)C(F)(F)F [VPC161219TFA],1.88,14.2,75.8,75.8,75.8,81,
O=C(Nc1ccccc1)c1ncc([N+](=O)[O-])s1 [VPC161232],,,,,,0,MIC (H. pylori; [11]): 6 µM; MIC (C. jejuni; [12]): 8 µM; MIC (MRSA; [13]): 32.1 µM; MIC (S. epidermidis; [14]): 16 µM; MIC (E. coli; [15]): 128 µM
"CC(C)(C)OC(=O)COc1ccccc1C(=O)Nc1ncc([N+](=O)[O-])s1 [VPC162035, tert-butyl 2-(2-(5-nitrothiazol-2-ylcarbamoyl)phenoxy)acetate]",,,,,,0,MIC (H. pylori; [11]): 1 µM; MIC (C. jejuni; [12]): 84.4 µM; MIC (MRSA; [13]): 84.3 µM; MIC (S. epidermidis; [14]): 84.3 µM; MIC (E. coli; [15]): 84.3 µM
O=C(Nc1ncc([N+](=O)[O-])s1)c1cc2ccc(F)cc2s1 [VPC162037],,,,,,,"MIC (H. pylori; Thiophene analogues table, read-out: MIC H. pylori): 3.1 µM; MIC (C. jejuni; Thiophene analogues table, read-out: MIC C. jejuni): 6.2 µM; MIC (MRSA; Thiophene analogues table, read-out: MIC MRSA): 61.9 µM; MIC (S. epidermidis; planktonic, Thiophene analogues table, read-out: MIC S. epidermidis Plank): 49.5 µM; MIC (E. coli; planktonic, Thiophene analogues table, read-out: MIC E. coli Plank): 99.0 µM; Disk Diff (%) C. difficile (C. difficile; Thiophene analogues table): 70%"
"O=C(O)COc1ccccc1C(=O)Nc1ncc([N+](=O)[O-])s1 [VPC162042, 2-(2-(5-nitrothiazol-2-ylcarbamoyl)phenoxy)acetic acid]",,,,,,,MIC (H. pylori; [6]): 49.5 µM; MIC (C. jejuni; [7]): 99 µM; MIC (MRSA; [8]): 99 µM; MIC (S. epidermidis; [9]): 99 µM; MIC (E. coli; [10]): 99 µM
O=C(O)COc1ccc(C(=O)Nc2ncc([N+](=O)[O-])s2)cc1 [VPC162043],99.0,99.0,99.0,99.0,99.0,,
CC(=O)NCCOc1ccccc1C(=O)Nc1ncc([N+](=O)[O-])s1 [VPC162044],1.1,34.3,91.3,22.8,91.3,77,
CS(=O)(=O)NCCOc1ccccc1C(=O)Nc1ncc([N+](=O)[O-])s1 [VPC162045],0.6,51.8,82.8,62.1,82.8,51,
